According to ChEMBL document CHEMBL1137304, “Fluorinated conformationally restricted gamma-aminobutyric acid aminotransferase inhibitors” (J Med Chem, 2006):

Assays:
[1] = target: 4-aminobutyrate aminotransferase, mitochondrial (Sus scrofa, UniProt P80147); experiment: Inhibition of pig brain GABA-AT in presence of beta-mercaptoethanol
[2] = target: 4-aminobutyrate aminotransferase, mitochondrial (Sus scrofa) (UniProt P80147); experiment: Residual activity at pig brain GABA-AT assessed by exhaustive dialysis at 0.2 M after 22 hrs relative to control
Sequence of 4-aminobutyrate aminotransferase, mitochondrial (Sus scrofa) (P80147 whole entry): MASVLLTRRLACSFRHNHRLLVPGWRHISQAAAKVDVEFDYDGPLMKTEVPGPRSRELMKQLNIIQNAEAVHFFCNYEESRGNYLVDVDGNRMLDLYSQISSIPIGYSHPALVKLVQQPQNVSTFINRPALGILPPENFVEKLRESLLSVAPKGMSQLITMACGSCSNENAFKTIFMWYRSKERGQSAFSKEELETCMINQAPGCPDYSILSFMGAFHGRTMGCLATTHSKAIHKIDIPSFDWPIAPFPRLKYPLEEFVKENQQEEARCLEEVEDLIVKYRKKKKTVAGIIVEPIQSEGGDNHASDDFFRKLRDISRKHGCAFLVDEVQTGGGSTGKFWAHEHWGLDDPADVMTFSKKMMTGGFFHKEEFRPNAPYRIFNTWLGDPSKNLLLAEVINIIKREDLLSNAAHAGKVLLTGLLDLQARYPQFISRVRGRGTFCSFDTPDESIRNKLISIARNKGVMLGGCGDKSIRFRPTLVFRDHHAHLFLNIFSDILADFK

[3] = target: 4-aminobutyrate aminotransferase, mitochondrial (Sus scrofa) (UniProt P80147); experiment: Inhibition of pig brain GABA-AT in presence of beta-mercaptoethanol at 0.2 M; conditions: TDE = time-dependent effect

Sequence of 4-aminobutyrate aminotransferase, mitochondrial (P80147 whole entry): as above

Row | Ki [1] | Activity [2] | Activity [3] | Structure (SMILES)
1 | 4.11 mM | 48% | tde | N[C@H]1C[C@@H](C(=O)O)C=C1C(F)(F)F
2 | 39.2 mM | 13% | tde | N[C@H]1C[C@@H](C(=O)O)CC1=CC(F)(F)F
3 | 1.3 mM | – | – | N[C@H]1C[C@@H](C(=O)O)C=C1F
4 | 4.2 mM | – | – | N[C@H]1C[C@@H](C(=O)O)CC1=C(C(F)(F)F)C(F)(F)F
5 | 7.74 mM | – | tde | N[C@H]1C[C@@H](C(=O)O)C/C1=C/C(F)(F)F
6 | 2.8 mM | – | – | N[C@H]1C[C@@H](C(=O)O)C=C1C(F)(F)C(F)(F)F
